Source: article PMC5739799 (Oncotarget, 2017)
Where two headings read alike, the source gives them in different places.

Experiments:
H129 hepatoma = assay: Syngenic orthotopic H129 hepatoma mouse model, survival; type: in vivo, C3H/HeN mice; conditions: regorafenib 10 mg/kg/day oral, start 4–5 days after implantation, vehicle 27 days
Source text: C3H/HeN mice aged 10–12 weeks with an average weight of 25 g were used for this model and were obtained from Charles River (Sulzfeld, Germany). Experiments were initiated after an acclimatizing period of at least 8 days. Syngenic murine H129 hepatoma cells (obtained from Dr. V. Schmitz, University of Bonn, Germany) were cultivated in RPMI medium, containing 10% fetal calf serum (FCS) and 5% glutamine. Cells were harvested in a subconfluent state (70–80%), prepared for injection of 5×10^4 cells/20 μL in growth factor-free Matrigel, and transplanted in the left upper liver lobe. Animals with surgical failures were marked and excluded from the experiment. Treatment was initiated 4–5 days after transplantation. One set of mice received regorafenib 10 mg/kg once daily, vehicle solution once daily, or no treatment (n=8 per treatment group). […] Treatments were given orally via gavage. The vehicle solution contained 10% Transcutol, 10% Cremophor, and 80% 0.9% NaCl. Animals were weighed twice a week and monitored daily for behavior and wound healing. […] Due to ascites formation in the peritoneum (a symptom of the disease), body weight was not used as part of the assessment. Animals were dissected to assess the cause of death unless they had died in their cage overnight.
(§1) In the syngenic orthotopic H129 model, differences in survival times between groups were analyzed for significance using log-rank tests. Analysis of tumor volumes of the HCC-PDX models was performed with log2-transformed values on defined days of measurement based on the assumption of their log-normal distribution. […] All respective statistical test results were derived from a common linear model that allows for individual variances in the different groups. The adjustment for multiple testing was carried out using Šidák correction at a significance level of 0.05. […] Bead-based western data were analyzed (described in [15]) using the MEV 4.8.1 software package. […]

HCC-PDX model 5 = assay: Patient-derived HCC xenograft model 5, tumor growth; type: in vivo, BALB/c nude mice
Description: (§2) The PDX studies were carried out by WuXi AppTec (Shanghai, China). HCC-PDX models were originally established from surgically resected tumor tissue that was implanted in 6–8-week-old female BALB/c nude mice. Animal studies were performed according to the guidelines approved by the Institutional Animal Care and Use Committee of Wuxi AppTec, which follow the guidance of the Association for the Assessment and Accreditation of Laboratory Animal Care. Animals were routinely monitored for their health status and their body weights. Treatment was suspended and/or doses reduced at body weight losses >10%. Animals were euthanized when the tumor size exceeded 2000 mm^3. Pieces from tumor xenografts (∼30 mm^3) from passages 4–8 (ST1) were implanted subcutaneously at the right flank, and tumors were grown to an average size of about 150–200 mm^3. […] Tumor size was measured twice weekly using caliper measurements. Tumor volume (mm^3) was calculated using the formula 0.5 a × b^2, where a and b are the long and short diameters of the tumor, respectively. TGI was assessed either by calculating the ratio of the mean tumor volumes of treated and control groups or by determination of the RTV, which relates tumor volumes at any given day of treatment to the volume at the first treatment day.
(§3) In the syngenic orthotopic H129 model, differences in survival times between groups were analyzed for significance using log-rank tests. Analysis of tumor volumes of the HCC-PDX models was performed with log2-transformed values on defined days of measurement based on the assumption of their log-normal distribution. […] All respective statistical test results were derived from a common linear model that allows for individual variances in the different groups. The adjustment for multiple testing was carried out using Šidák correction at a significance level of 0.05. Back transformation of the mean difference of log2-transformed tumor volumes led to the ratios of the compared groups, whereby ratios of 1 reflect no difference in tumor volumes and ratios below or above 1 reflect smaller or larger tumor volumes, respectively, of the respective second group. The analyses of RTV were carried out in a similar fashion without the log2 transformation of values. Bead-based western data were analyzed (described in [15]) using the MEV 4.8.1 software package. A p-value <0.05 was regarded as significant. All statistical analyses were performed with SAS® 9.4 [34].

HCC-PDX model 10 = assay: Patient-derived HCC xenograft model 10, tumor growth; type: in vivo, BALB/c nude mice
Description: as §2, §3

HCC-PDX model 19 = assay: Patient-derived HCC xenograft model 19, tumor growth; type: in vivo, BALB/c nude mice
Description: as §2, §3

HCC-PDX model 20 = assay: Patient-derived HCC xenograft model 20, tumor growth; type: in vivo, BALB/c nude mice
Description: as §2, §3

HCC-PDX model 61 = assay: Patient-derived HCC xenograft model 61, tumor growth; type: in vivo, BALB/c nude mice
Description: as §2, §3

HCC-PDX model 101 = assay: Patient-derived HCC xenograft model 101, tumor growth; type: in vivo, BALB/c nude mice
Description: as §2, §3

HCC-PDX model 141 = assay: Patient-derived HCC xenograft model 141, tumor growth; type: in vivo, BALB/c nude mice
Description: as §2, §3

HCC-PDX model 159 = assay: Patient-derived HCC xenograft model 159, tumor growth; type: in vivo, BALB/c nude mice
Description: as §2, §3

[1] = tested on: 10 patient-derived HCC xenograft (HCC-PDX) models; assay: Panel of 10 HCC-PDX models, overall response and tolerability; type: in vivo, BALB/c nude mice; conditions: 10 HCC-PDX models; regorafenib 10, sorafenib 30 mg/kg/day oral
Description: as §2, §1

[2] = Steady-state plasma pharmacokinetics after oral dosing for 5 days; type: in vivo, BALB/c nu/nu mice
Description: Pharmacokinetic studies were performed in 6–8-week-old female BALB/c nu/nu mice (Charles River, Sulzfeld, Germany). […] Parent compounds and metabolites M-2 and M-5 were analyzed in plasma samples using validated bioanalytical liquid chromatography-tandem mass spectrometry (LC-MS/MS) methods according to an experimental protocol described earlier. PK parameters, namely the AUC(0–24)ss and Cmax, were calculated from plasma concentrations using a non-compartmental analysis.

[3] = day 28, R 10 / S 30 mg/kg/day oral starting dose
[4] = plasma analyte after oral regorafenib 10 mg/kg/day for 5 days

Structure (SMILES): CNC(=O)c1cc(Oc2ccc(NC(=O)Nc3ccc(Cl)c(C(F)(F)F)c3)c(F)c2)ccn1 [Regorafenib]
- Median survival, days (95% CI) (H129 hepatoma): 36 (31, 38) days
- Median survival, days (95% CI) (H129 hepatoma; listed as regorafenib): 36 days
- log TV Ratio, compound vs vehicle (T/C) (HCC-PDX model 5; day 28): 0.13
- log TV Ratio, regorafenib vs sorafenib (HCC-PDX model 5; day 28): 0.73
- Mean TV (HCC-PDX model 5; [3]): 80.96 mm^3
- log TV Differences of least square-means, compound vs vehicle (HCC-PDX model 5; day 28, log2-transformed TV): -29,518
- log TV Differences of least square-means, regorafenib vs sorafenib (HCC-PDX model 5; day 28, log2-transformed TV): -0.4634
- RTV Differences of least square-means, compound vs vehicle (HCC-PDX model 5; day 46): -60,049
- RTV Differences of least square-means, regorafenib vs sorafenib (HCC-PDX model 5; day 46): -0.6001
- RTV (HCC-PDX model 5; end of study, day 46): 1.14
- RTV Differences of least square-means, regorafenib vs sorafenib (HCC-PDX model 10; RTV analysis day R 40, S 30): -99,327
- log TV Ratio, compound vs vehicle (T/C) (HCC-PDX model 10; day 12): 0.15
- log TV Ratio, regorafenib vs sorafenib (HCC-PDX model 10; day 12): 0.53
- Mean TV (HCC-PDX model 10; day 12, R 10 / S 30 mg/kg/day oral): 332.11 mm^3
- log TV Differences of least square-means, compound vs vehicle (HCC-PDX model 10; day 12, log2-transformed TV): -27,077
- log TV Differences of least square-means, regorafenib vs sorafenib (HCC-PDX model 10; day 12, log2-transformed TV): -0.9111
- RTV (HCC-PDX model 10; end of study (RTV analysis day R 40, S 30)): 9.15
- log TV Ratio, compound vs vehicle (T/C) (HCC-PDX model 19; day 28): 0.66
- log TV Ratio, regorafenib vs sorafenib (HCC-PDX model 19; day 28): 1.06
- Mean TV (HCC-PDX model 19; [3]): 542.38 mm^3
- log TV Differences of least square-means, compound vs vehicle (HCC-PDX model 19; day 28, log2-transformed TV): -0.6083
- log TV Differences of least square-means, regorafenib vs sorafenib (HCC-PDX model 19; day 28, log2-transformed TV): 0.08047
- RTV Differences of least square-means, compound vs vehicle (HCC-PDX model 19; day 42): -24.1
- RTV Differences of least square-means, regorafenib vs sorafenib (HCC-PDX model 19; day 42): 0.5174
- RTV (HCC-PDX model 19; end of study, day 42): 5.21
- log TV Ratio, compound vs vehicle (T/C) (HCC-PDX model 20; day 21): 0.73
- log TV Ratio, regorafenib vs sorafenib (HCC-PDX model 20; day 21): 0.93
- Mean TV (HCC-PDX model 20; day 21, R 10 / S 30 mg/kg/day oral): 742.98 mm^3
- log TV Differences of least square-means, compound vs vehicle (HCC-PDX model 20; day 21, log2-transformed TV): -0.4621
- log TV Differences of least square-means, regorafenib vs sorafenib (HCC-PDX model 20; day 21, log2-transformed TV): -0.1048
- RTV Differences of least square-means, compound vs vehicle (HCC-PDX model 20; day 42): -23.2
- RTV Differences of least square-means, regorafenib vs sorafenib (HCC-PDX model 20; day 42): -11
- RTV (HCC-PDX model 20; end of study, day 42): 9.46
- RTV Differences of least square-means, regorafenib vs sorafenib (HCC-PDX model 61; RTV analysis day R 42, S 36): -19.5
- log TV Ratio, compound vs vehicle (T/C) (HCC-PDX model 61; day 25): 0.26
- log TV Ratio, regorafenib vs sorafenib (HCC-PDX model 61; day 25): 0.72
- Mean TV (HCC-PDX model 61; day 25, R 10 / S 30 mg/kg/day oral): 331.96 mm^3
- log TV Differences of least square-means, regorafenib vs sorafenib (HCC-PDX model 61; day 25, log2-transformed TV): -0.4771
- RTV (HCC-PDX model 61; end of study (RTV analysis day R 42, S 36)): 5.43
- log TV Ratio, compound vs vehicle (T/C) (HCC-PDX model 101; day 28): 0.19
- log TV Ratio, regorafenib vs sorafenib (HCC-PDX model 101; day 28): 0.41
- Mean TV (HCC-PDX model 101; [3]): 177.21 mm^3
- RTV (HCC-PDX model 101; end of study, day 42): 2.06
- log TV Ratio, compound vs vehicle (T/C) (HCC-PDX model 141; day 28): 0.10
- log TV Ratio, regorafenib vs sorafenib (HCC-PDX model 141; day 28): 0.76
- Mean TV (HCC-PDX model 141; [3]): 89.74 mm^3
- log TV Differences of least square-means, regorafenib vs sorafenib (HCC-PDX model 141; day 28, log2-transformed TV): -0.3980
- RTV (HCC-PDX model 141; end of study, day 42): 1.04
- log TV Ratio, compound vs vehicle (T/C) (HCC-PDX model 159; day 28): 0.59
- log TV Ratio, regorafenib vs sorafenib (HCC-PDX model 159; day 28): 0.78
- Mean TV (HCC-PDX model 159; [3]): 864.43 mm^3
- log TV Differences of least square-means, compound vs vehicle (HCC-PDX model 159; day 28, log2-transformed TV): -0.7546
- log TV Differences of least square-means, regorafenib vs sorafenib (HCC-PDX model 159; day 28, log2-transformed TV): -0.3604
- RTV Differences of least square-means, regorafenib vs sorafenib (HCC-PDX model 159; day 35): -0.6894
- RTV (HCC-PDX model 159; end of study, day 35): 9.04
- Models with significant tumor growth inhibition [1]: 8/10
- AUC(0–24)ss (percent of total) ([2]; after oral regorafenib 10 mg/kg/day for 5 days, total = molar sum of regorafenib, M-2, M-5): 90% of total
- AUC(0-t) ([2]; female, BALB/c nu/nu, mouse, plasma analyte after oral regorafenib 10 mg/kg/day for 5 days, read-out: AUC(0–24)ss): 93100 ng·h/mL
- Cmax ([2]; female, BALB/c nu/nu, mouse, plasma analyte after oral regorafenib 10 mg/kg/day for 5 days, read-out: Cmax): 10700 ng/mL
- AUC(0–24)ss [2, 4]: 193 µM·h
- Cmax [2, 4]: 22.2 µM
- Cumulated maximum concentration (Cmax) ([2]; regorafenib 10 mg/kg once daily for 5 days, parent plus metabolites): 24.5 µM
